ChEMBL document CHEMBL3085759, “Structure-activity relationship (SAR) and preliminary mode of action studies of 3-substituted benzylthioquinolinium iodide as anti-opportunistic infection agents” (Eur J Med Chem, 2013)

Columns and labels:
[1] = tested on: Mycobacterium intracellulare; test: Antimicrobial activity against Mycobacterium intracellulare ATCC 23068 by Alamar blue method; assay type: functional, organism-based
[2] = tested on: Staphylococcus aureus; test: Antimicrobial activity against methicillin-resistant Staphylococcus aureus ATCC 33591 by Alamar blue method; assay type: functional, organism-based
[3] = tested on: Staphylococcus aureus; test: Antimicrobial activity against Staphylococcus aureus ATCC 29213 by Alamar blue method; assay type: functional, organism-based; details: Staphylococcus aureus, ATCC 29213; for IC50: read-out: IC50
[4] = tested on: Nakaseomyces glabratus; test: Antimicrobial activity against Candida glabrata by Alamar blue method; assay type: functional, organism-based
[5] = tested on: Pichia kudriavzevii; test: Antimicrobial activity against Candida krusei ATCC 6258 by Alamar blue method; assay type: functional, organism-based
[6] = Cytotoxicity against african green monkey Vero cells after 48 hrs by Neutral Red dye assay; assay type: cell-based; details: chlorocebus sabaeus, read-out: TC50
[7] = tested on: Aspergillus fumigatus; test: Antimicrobial activity against Aspergillus fumigatus ATCC 204305 by Alamar blue method; assay type: functional, organism-based
[8] = tested on: Cryptococcus neoformans; test: Antimicrobial activity against Cryptococcus neoformans ATCC 90113 by Alamar blue method; assay type: functional, organism-based
[9] = tested on: Candida albicans; test: Antimicrobial activity against Candida albicans ATCC 90028 by Alamar blue method; assay type: functional, organism-based
[10] = tested on: Vero; test: Cytotoxicity against african green monkey Vero cells at 10 ug/ml after 48 hrs by Neutral Red dye assay; assay type: cell-based; details: chlorocebus sabaeus

| SMILES | IC50 [1] | MBC [1] | MIC [1] | IC50 [2] | MBC [2] | MIC [2] | MBC [3] | MIC [3] | IC50 [3] | IC50 [4] | MFC [4] | MIC [4] | IC50 [5] | MFC [5] | MIC [5] | IC50 [7] | MIC [7] | MIC [8] | IC50 [9] | MIC [9] | other results |
| --- | --- | --- | --- | --- | --- | --- | --- | --- | --- | --- | --- | --- | --- | --- | --- | --- | --- | --- | --- | --- | --- |
| Cc1ccc(CSc2cc3ccccc3[n+](CCCCCC3CCCCC3)c2)cc1.[I-] | 7.5 mg/L | 10 mg/L | 10 mg/L | 0.49 mg/L | 2.5 mg/L | 1.3 mg/L | 2.5 mg/L | 0.63 mg/L | 0.39 mg/L | 3.1 mg/L | 5 mg/L | 5 mg/L | 0.27 mg/L | 1.3 mg/L | 1.3 mg/L | 4.5 mg/L | 10 mg/L | 0.31 mg/L | 1.4 mg/L | 2.5 mg/L | CC50 at 48 h [6]: 6.8 mg/L; MFC [7]: 10 mg/L; MFC [8]: 0.31 mg/L; MFC [9]: 5 mg/L |
| Oc1ccc(CSc2cc3ccccc3[n+](CCCCCC3CCCCC3)c2)cc1.[I-] | 2.2 mg/L | 5 mg/L | 2.5 mg/L | 0.34 mg/L | 5 mg/L | 0.63 mg/L | 2.5 mg/L | 2.5 mg/L | 0.26 mg/L | 7.9 mg/L | 20 mg/L | 20 mg/L | 0.56 mg/L | 1.3 mg/L | 1.3 mg/L | 16 mg/L | 20 mg/L | 10 mg/L | 11 mg/L | 20 mg/L | Activity [10]: Non-toxic; MFC [7]: 20 mg/L; MFC [8]: 10 mg/L; MFC [9]: 20 mg/L |
| [I-].c1ccc(CSc2cc3ccccc3[n+](CCCCCC3CCCCC3)c2)cc1 | 4 mg/L | 20 mg/L | 5 mg/L | 0.33 mg/L | 1.3 mg/L | 0.63 mg/L | 10 mg/L | 0.31 mg/L | 0.23 mg/L | 2.9 mg/L | 5 mg/L | 5 mg/L | 0.71 mg/L | 1.3 mg/L | 1.3 mg/L | 5.7 mg/L | 10 mg/L | 0.31 mg/L | 1.6 mg/L | 5 mg/L | Activity [10]: Non-toxic; MFC [7]: 20 mg/L; MFC [8]: 0.63 mg/L; MFC [9]: 5 mg/L |
| N#Cc1ccccc1CSc1cc2ccccc2[n+](CCCCCC2CCCCC2)c1.[I-] | 6.8 mg/L | 10 mg/L | 10 mg/L | 0.97 mg/L | 10 mg/L | 2.5 mg/L | 5 mg/L | 1.3 mg/L | 0.68 mg/L | > 20 mg/L | > 20 mg/L | > 20 mg/L | 1.5 mg/L | 5 mg/L | 5 mg/L | 11 mg/L | 20 mg/L | 1.3 mg/L | 1.6 mg/L | 5 mg/L | Activity [10]: Non-toxic; MFC [7]: 20 mg/L; IC50 [8]: 0.5 mg/L; MFC [8]: 2.5 mg/L; MFC [9]: 10 mg/L |
| N#Cc1cccc(CSc2cc3ccccc3[n+](CCCCCC3CCCCC3)c2)c1.[I-] | 4.8 mg/L | 10 mg/L | 5 mg/L | 0.72 mg/L | 5 mg/L | 1.3 mg/L | 2.5 mg/L | 1.3 mg/L | 0.69 mg/L | 4.7 mg/L | 10 mg/L | 10 mg/L | 1.1 mg/L | 2.5 mg/L | 2.5 mg/L | 8.6 mg/L | 20 mg/L | 2.5 mg/L | 4.3 mg/L | 10 mg/L | Activity [10]: Non-toxic; MFC [7]: 20 mg/L; IC50 [8]: 1.1 mg/L; MFC [8]: 5 mg/L; MFC [9]: 20 mg/L |
| Cc1ccccc1CSc1cc2ccccc2[n+](CCCCCC2CCCCC2)c1.[I-] | 6.7 mg/L | 10 mg/L | 10 mg/L | 0.73 mg/L | 2.5 mg/L | 1.3 mg/L | 2.5 mg/L | 0.63 mg/L | 0.4 mg/L | 2.8 mg/L | 5 mg/L | 5 mg/L | 0.84 mg/L | 2.5 mg/L | 2.5 mg/L | 4.1 mg/L | 10 mg/L | 0.63 mg/L | 1.4 mg/L | 2.5 mg/L | Activity [10]: Non-toxic; IC50 [8]: 0.39 mg/L |
| FC(F)(F)c1cccc(CSc2cc3ccccc3[n+](CCCCCC3CCCCC3)c2)c1.[I-] | 7.2 mg/L | 10 mg/L | 10 mg/L | 0.56 mg/L | 2.5 mg/L | 1.3 mg/L | 2.5 mg/L | 0.63 mg/L | 0.4 mg/L | 2.8 mg/L | 5 mg/L | 5 mg/L | 1.4 mg/L | 2.5 mg/L | 2.5 mg/L | 1.9 mg/L | 2.5 mg/L | 0.63 mg/L | 1.2 mg/L | 2.5 mg/L | Activity [10]: Non-toxic; MFC [7]: 2.5 mg/L; IC50 [8]: 0.28 mg/L; MFC [8]: 0.63 mg/L; MFC [9]: 2.5 mg/L |
| Clc1ccccc1CSc1cc2ccccc2[n+](CCCCCC2CCCCC2)c1.[I-] | 13 mg/L | 20 mg/L | 20 mg/L | 0.74 mg/L | 5 mg/L | 1.3 mg/L | 5 mg/L | 1.3 mg/L | 0.77 mg/L | 6 mg/L | 10 mg/L | 10 mg/L | 0.34 mg/L | 2.5 mg/L | 2.5 mg/L | 17 mg/L | 20 mg/L | 2.5 mg/L | 5.6 mg/L | 10 mg/L | Activity [10]: Non-toxic; MFC [7]: 20 mg/L; IC50 [8]: 1.5 mg/L; MFC [8]: 5 mg/L; MFC [9]: 20 mg/L |
| COc1ccc(CSc2cc3ccccc3[n+](CCCCCC3CCCCC3)c2)cc1.[I-] | 1.7 mg/L | 2.5 mg/L | 2.5 mg/L | 0.36 mg/L | 2.5 mg/L | 0.63 mg/L | 2.5 mg/L | 0.31 mg/L | 0.18 mg/L | 3 mg/L | 10 mg/L | 10 mg/L | 0.37 mg/L | 1.3 mg/L | 0.63 mg/L | 5.4 mg/L | 10 mg/L | 0.31 mg/L | 1.2 mg/L | 5 mg/L | Activity [10]: Non-toxic; MFC [7]: 10 mg/L; IC50 [8]: 0.18 mg/L; MFC [8]: 0.63 mg/L; MFC [9]: 5 mg/L |
| Fc1ccccc1CSc1cc2ccccc2[n+](CCCCCC2CCCCC2)c1.[I-] | 16 mg/L | 20 mg/L | 20 mg/L | 0.74 mg/L | 2.5 mg/L | 1.3 mg/L | 2.5 mg/L | 1.3 mg/L | 0.73 mg/L | 6.3 mg/L | 20 mg/L | 20 mg/L | 1.4 mg/L | 2.5 mg/L | 2.5 mg/L | 6.5 mg/L | 20 mg/L | 1.3 mg/L | 2.7 mg/L | 5 mg/L | Activity [10]: Non-toxic; MFC [7]: 20 mg/L; IC50 [8]: 0.63 mg/L; MFC [8]: 1.3 mg/L; MFC [9]: 5 mg/L |
| CC(C)(C)c1ccc(CSc2cc3ccccc3[n+](CCCCCC3CCCCC3)c2)cc1.[I-] | > 20 mg/L | > 20 mg/L | > 20 mg/L | 12 mg/L | > 20 mg/L | 20 mg/L | > 20 mg/L | > 20 mg/L | > 20 mg/L | > 20 mg/L | > 20 mg/L | > 20 mg/L | 1.2 mg/L | 20 mg/L | 20 mg/L | > 20 mg/L | > 20 mg/L | 1.3 mg/L | 20 mg/L | > 20 mg/L | Activity [10]: Non-toxic; MFC [7]: > 20 mg/L; MFC [8]: 10 mg/L; MFC [9]: > 20 mg/L |
| N#Cc1ccc(CSc2cc3ccccc3[n+](CCCCCC3CCCCC3)c2)cc1.[I-] | > 20 mg/L | > 20 mg/L | > 20 mg/L | 2.2 mg/L | 5 mg/L | 5 mg/L | 5 mg/L | 5 mg/L | 1.8 mg/L | 11 mg/L | 20 mg/L | 20 mg/L | 5.7 mg/L | 10 mg/L | 10 mg/L | 8.6 mg/L | 20 mg/L | 2.5 mg/L | 2.5 mg/L | 5 mg/L | Activity [10]: Non-toxic; MFC [7]: 20 mg/L; IC50 [8]: 0.81 mg/L; MFC [8]: 2.5 mg/L; MFC [9]: 10 mg/L |
| Clc1ccc(CSc2cc3ccccc3[n+](CCCCCC3CCCCC3)c2)cc1Cl.[I-] | 4.5 mg/L | 10 mg/L | 5 mg/L | 0.18 mg/L | 1.3 mg/L | 1.3 mg/L | 2.5 mg/L | 2.5 mg/L | 0.5 mg/L | 3 mg/L | 5 mg/L | 5 mg/L | 0.3 mg/L | 1.3 mg/L | 1.3 mg/L | 2.8 mg/L | 5 mg/L | 0.63 mg/L | 1.1 mg/L | 2.5 mg/L | Activity [10]: Non-toxic; MFC [7]: 5 mg/L; IC50 [8]: 0.45 mg/L; MFC [8]: 0.63 mg/L; MFC [9]: 2.5 mg/L |
| Brc1cccc(CSc2cc3ccccc3[n+](CCCCCC3CCCCC3)c2)c1.[I-] | 3.2 mg/L | 5 mg/L | 5 mg/L | 0.21 mg/L | 0.63 mg/L | 0.31 mg/L | 0.63 mg/L | 0.63 mg/L | 0.42 mg/L | 1.4 mg/L | 2.5 mg/L | 2.5 mg/L | 0.4 mg/L | 0.63 mg/L | 0.63 mg/L | 4.8 mg/L | 10 mg/L | 0.63 mg/L | 2.6 mg/L | 5 mg/L | Activity [10]: Non-toxic; MFC [7]: 10 mg/L; IC50 [8]: 0.56 mg/L; MFC [8]: 1.3 mg/L; MFC [9]: 5 mg/L |
